From PubChem BioAssay AID1963981 (Molecular Pharmacology Branch, DTP, NCI, 2024)

Test system: 354836-022-R-J1-PDC multicell spheroid viability
Assay: Anticancer human tumor 354836-022-R-J1-PDC patient-derived head and neck squamous cell carcinoma cell line growth inhibition [PI3K]
Conditions: for IC50: curve of first compound; for viability, T/C: stronger effect = lower value; active means viability on the fitted dose curve at most 10% of control; inactive means the rest
Method in brief: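 Targeted small molecules plus PI3K inhibitors, half-log dose series from Cmax (default top 10 microM), were applied to heterotypic spheroids of cancer cells with HUVEC and MSCs. Viability indicated growth inhibition.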

[1] = second compound 0.0316 µM, first compound 0.00949 µM
[2] = second compound 0.0316 µM, first compound 0.03 µM
[3] = second compound 0.0316 µM, first compound 0.0949 µM
[4] = second compound 0.0316 µM, first compound 0.3 µM
[5] = second compound 0.0316 µM, first compound 0.949 µM
[6] = second compound 0.0316 µM, first compound 3 µM
[7] = second compound 0.1 µM, first compound 0.00949 µM
[8] = second compound 0.1 µM, first compound 0.03 µM
[9] = second compound 0.1 µM, first compound 0.0949 µM
[10] = second compound 0.1 µM, first compound 0.3 µM
[11] = second compound 0.1 µM, first compound 0.949 µM
[12] = second compound 0.1 µM, first compound 3 µM
[13] = second compound 0.316 µM, first compound 0.00949 µM
[14] = second compound 0.316 µM, first compound 0.03 µM
[15] = second compound 0.316 µM, first compound 0.0949 µM
[16] = second compound 0.316 µM, first compound 0.3 µM
[17] = second compound 0.316 µM, first compound 0.949 µM
[18] = second compound 0.316 µM, first compound 3 µM
[19] = second compound 1 µM, first compound 0.00949 µM
[20] = second compound 1 µM, first compound 0.03 µM
[21] = second compound 1 µM, first compound 0.0949 µM
[22] = second compound 1 µM, first compound 0.3 µM
[23] = second compound 1 µM, first compound 0.949 µM
[24] = second compound 1 µM, first compound 3 µM
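Further: spheroids exposed to agents for seven days before the viability read.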

Cn1cnc2c(F)c(Nc3ccc(Br)cc3Cl)c(C(=O)NOCCO)cc21 + COc1c(OCCCN2CCOCC2)ccc2c3n(c(=NC(=O)c4cnc(N)nc4)nc12)CCN3
inactive: viability, T/C (second compound 0.00316 µM, first compound 0.00949 µM) 107% | viability, T/C (second compound 0.00316 µM, first compound 0.03 µM) 86.2% | viability, T/C (second compound 0.00316 µM, first compound 0.0949 µM) 89.4% | viability, T/C (second compound 0.00316 µM, first compound 0.3 µM) 96.6% | viability, T/C (second compound 0.00316 µM, first compound 0.949 µM) 75.5% | viability, T/C (second compound 0.00316 µM, first compound 3 µM) 58% | viability, T/C (second compound 0.01 µM, first compound 0.00949 µM) 83.3% | viability, T/C (second compound 0.01 µM, first compound 0.03 µM) 84.6% | viability, T/C (second compound 0.01 µM, first compound 0.0949 µM) 78.3% | viability, T/C (second compound 0.01 µM, first compound 0.3 µM) 89.2% | viability, T/C (second compound 0.01 µM, first compound 0.949 µM) 75.4% | viability, T/C (second compound 0.01 µM, first compound 3 µM) 60.7% | viability, T/C [1] 81.2% | viability, T/C [2] 80% | viability, T/C [3] 67.8% | viability, T/C [4] 66.9% | viability, T/C [5] 66.3% | viability, T/C [6] 41% | viability, T/C [7] 43.8% | viability, T/C [8] 48.6% | viability, T/C [9] 38.3% | viability, T/C [10] 41.9% | viability, T/C [11] 31.2% | viability, T/C [12] 15.2% | viability, T/C [13] 12.7% | viability, T/C [14] 9.02%
1860 nM: IC50 (second compound 0.0316 µM)
active: viability, T/C [15] 11% | viability, T/C [16] 9.87% | viability, T/C [17] 5.57% | viability, T/C [18] 1.48% | viability, T/C [19] 1.58% | viability, T/C [20] 1.2% | viability, T/C [21] 1.03% | viability, T/C [22] 1.25% | viability, T/C [23] 0.64% | viability, T/C [24] 0.57%
< 9.49 nM: IC50 (second compound 0.1 µM) | IC50 (second compound 0.316 µM) | IC50 (second compound 1 µM)
> 3000 nM: IC50 (second compound 0.00316 µM) | IC50 (second compound 0.01 µM)

CC(C)n1nc(-c2ccc3oc(N)nc3c2)c2c(N)ncnc21 + COc1c(OCCCN2CCOCC2)ccc2c3n(c(=NC(=O)c4cnc(N)nc4)nc12)CCN3
inactive: viability, T/C (second compound 0.00316 µM, first compound 0.000316 µM) 103% | viability, T/C (second compound 0.00316 µM, first compound 0.001 µM) 70.8% | viability, T/C (second compound 0.00316 µM, first compound 0.00316 µM) 77.9% | viability, T/C (second compound 0.00316 µM, first compound 0.01 µM) 50.9% | viability, T/C (second compound 0.00316 µM, first compound 0.0316 µM) 33% | viability, T/C (second compound 0.01 µM, first compound 0.000316 µM) 93.3% | viability, T/C (second compound 0.01 µM, first compound 0.001 µM) 86.8% | viability, T/C (second compound 0.01 µM, first compound 0.00316 µM) 67.7% | viability, T/C (second compound 0.01 µM, first compound 0.01 µM) 52.3% | viability, T/C (second compound 0.01 µM, first compound 0.0316 µM) 28.3% | viability, T/C (second compound 0.0316 µM, first compound 0.000316 µM) 67% | viability, T/C (second compound 0.0316 µM, first compound 0.001 µM) 70.8% | viability, T/C (second compound 0.0316 µM, first compound 0.00316 µM) 61.7% | viability, T/C (second compound 0.0316 µM, first compound 0.01 µM) 49% | viability, T/C (second compound 0.0316 µM, first compound 0.0316 µM) 23.5% | viability, T/C (second compound 0.1 µM, first compound 0.000316 µM) 49% | viability, T/C (second compound 0.1 µM, first compound 0.001 µM) 48.2% | viability, T/C (second compound 0.1 µM, first compound 0.00316 µM) 36.4% | viability, T/C (second compound 0.1 µM, first compound 0.01 µM) 27.4% | viability, T/C (second compound 0.1 µM, first compound 0.0316 µM) 11.9% | viability, T/C (second compound 0.316 µM, first compound 0.000316 µM) 16.2% | viability, T/C (second compound 0.316 µM, first compound 0.001 µM) 9.69%
active: viability, T/C (second compound 0.00316 µM, first compound 0.1 µM) 3.49% | viability, T/C (second compound 0.01 µM, first compound 0.1 µM) 3.55% | viability, T/C (second compound 0.0316 µM, first compound 0.1 µM) 2.77% | viability, T/C (second compound 0.1 µM, first compound 0.1 µM) 2.07% | viability, T/C (second compound 0.316 µM, first compound 0.00316 µM) 8.47% | viability, T/C (second compound 0.316 µM, first compound 0.01 µM) 10.1% | viability, T/C (second compound 0.316 µM, first compound 0.0316 µM) 3.38% | viability, T/C (second compound 0.316 µM, first compound 0.1 µM) 0.76% | viability, T/C (second compound 1 µM, first compound 0.000316 µM) 1.52% | viability, T/C (second compound 1 µM, first compound 0.001 µM) 1.5% | viability, T/C (second compound 1 µM, first compound 0.00316 µM) 1.64% | viability, T/C (second compound 1 µM, first compound 0.01 µM) 1.22% | viability, T/C (second compound 1 µM, first compound 0.0316 µM) 0.82% | viability, T/C (second compound 1 µM, first compound 0.1 µM) 0.62%
10.7 nM: IC50 (second compound 0.01 µM)
< 0.316 nM: IC50 (second compound 0.1 µM) | IC50 (second compound 0.316 µM) | IC50 (second compound 1 µM)
9.09 nM: IC50 (second compound 0.0316 µM)
11.4 nM: IC50 (second compound 0.00316 µM)

Cn1cnc2c(F)c(Nc3ccc(Br)cc3Cl)c(C(=O)NOCCO)cc21 + CC(Nc1ncnc2nc[nH]c12)c1cc2cccc(Cl)c2c(=O)n1-c1ccccc1
2670 nM: IC50 (second compound 0.316 µM)
> 3000 nM: IC50 (second compound 0.0316 µM) | IC50 (second compound 1 µM) | IC50 (second compound 3.16 µM) | IC50 (second compound 10 µM)
2650 nM: IC50 (second compound 0.1 µM)
inactive: viability, T/C [1] 94.3% | viability, T/C [2] 90.4% | viability, T/C [3] 87.4% | viability, T/C [4] 71.9% | viability, T/C [5] 69.4% | viability, T/C [6] 49.4% | viability, T/C [7] 89.9% | viability, T/C [8] 80.4% | viability, T/C [9] 70.3% | viability, T/C [10] 81.3% | viability, T/C [11] 64.6% | viability, T/C [12] 47.7% | viability, T/C [13] 89.7% | viability, T/C [14] 83.9% | viability, T/C [15] 94.2% | viability, T/C [16] 72.1% | viability, T/C [17] 74.8% | viability, T/C [18] 46.6% | viability, T/C [19] 90.5% | viability, T/C [20] 83.8% | viability, T/C [21] 79.6% | viability, T/C [22] 81.2% | viability, T/C [23] 74.5% | viability, T/C [24] 55.6% | viability, T/C (second compound 3.16 µM, first compound 0.00949 µM) 99.5% | viability, T/C (second compound 3.16 µM, first compound 0.03 µM) 86.9% | viability, T/C (second compound 3.16 µM, first compound 0.0949 µM) 71.1% | viability, T/C (second compound 3.16 µM, first compound 0.3 µM) 88.8% | viability, T/C (second compound 3.16 µM, first compound 0.949 µM) 81% | viability, T/C (second compound 3.16 µM, first compound 3 µM) 63.5% | viability, T/C (second compound 10 µM, first compound 0.00949 µM) 85.5% | viability, T/C (second compound 10 µM, first compound 0.03 µM) 89.2% | viability, T/C (second compound 10 µM, first compound 0.0949 µM) 87.1% | viability, T/C (second compound 10 µM, first compound 0.3 µM) 77.1% | viability, T/C (second compound 10 µM, first compound 0.949 µM) 68.2% | viability, T/C (second compound 10 µM, first compound 3 µM) 54.8%
